# Data from patent EP1528931B1, “DIPEPTIDYL PEPTIDASE IV INHIBITORS FOR DECREASING THE RATE OF CHRONIC WEIGHT GAIN” (Prosidion Ltd., priority 2002, dated 2004).
# Values joined by “and” are separate entries in the source; they are usually repeats but may differ in a detail not shown here. Equal values may be shown once. Ends that are not written are not given here.
# Experiments:
# [1] = target: human plasma containing DP IV-activity (Homo sapiens, UniProt P27487); experiment: Proteolytic processing of peptides in human plasma with or without P32/98, MALDI-TOF; conditions: human EDTA-plasma with 9.8 µMol/l isoleucyl thiazolidine hemifumarate
# Description: Matrix-assisted laser desorption/ionisation mass spectrometry was carried out using the Hewlett-Packard G2025 LD-TOF System with a linear tune of flight analyzer. […] The spectrometer was calibrated externally. […] Samples of the reaction mixtures were removed at various time intervals and mixed with equal volumes of the matrix solution. By mixing assay sample and matrix, the low pH of the matrix solution stopped the enzymatic reaction. A small volume (< 1 µl) of this mixture was transferred to a probe tip and immediately evaporated in a Hewlett-Packard G2024A Sample Prep Accessory to ensure rapid and homogenous sample crystallization. All spectra were generated using automatic mode by averaging 250 single shots selected by the signal-to-noise ratio.
# The DP IV used in this study was purified from porcine kidney. […] In the case of plasma, fresh prepared human EDTA-plasma from healthy subjects was used. […] Capillary zone electrophoresis (CZE) investigations were carried out using a system from Beckman. Peptides and enzymes were incubated in the capillary electrophoresis system at 37°C using a 20 mM phosphate buffer pH7.4. Decrease of substrate was determined by subsequent measurements of the same sample. Separation was carried out using a 0.1 M phosphate buffer pH 2.5, a 50 µm * 30 cm fused silica capillary and 16 kV constant voltage. Peptides were detected at 200 nm. Substrate concentrations were calculated from the height of the peptide peaks, For determination of kinetic constants the degradation velocity from at least 4 substrate concentrations were determined and fitted according the Michaelis-Menten equation using Graphit 4.0.
# [2] = test system: Male Zucker fa/fa rats; experiment: Repeated once-daily dosing for 21 days: morning values and day-night profile of blood glucose and plasma insulin; type: in vivo, rat
# Description: The parameters monitored were morning blood glucose and plasma insulin levels. In a day-night profile, glycemia and insulinaemia were monitored from day 16 to day 17. An OGTT was performed finally on day 21 to monitor blood glucose and plasma insulin kinetics to assess changes in glucose tolerance. Glibenclamide (DAB 1996; R011150/33372) was donated by Berlin-Chemie (Berlin, Germany). Male Zucker (fa/fa) rats of the body Weight class of 300g were purchased from Charles River (Sulzfeld, Germany).
# Housing Conditions: Animals were kept single-housed under conventional conditions with controlled temperature (22±2 °C) on a 12/12 hours light/dark cycle (light on at 06:00 a.m.). Standard pellets (ssniff®, Soest, Germany) and tap water acidified with HCl were allowed ad libitum.
# Catheterization of Carotid Artery: After one week of adaptation carotid catheters were implanted in the rats under general anesthesia (injection of 0.25 ml/kg i.p. Rompun® [2%], Bayer, Germany) and 0.5 ml/kg i.p. Velonarkon® (Arzneimittelwerk Dresden, Germany). The animals were allowed to recover for one week. The catheter was flushed with heparin-saline (104 IU/ml) three times per week.
# Thereafter, the non-diabetic Wistar rats were treated orally once daily with RP (5 mg/kg b.w.) or TP (21.51 mg/kg b.w.) and the diabetic Zucker rats were treated orally once daily with RP (1 mg/kg b.w.) or TP (21.61 mg/kg b.w.) for 21 days at 05.00 p.m. (before regular food intake in the dark phase). The controls were given 1% cellulose solution orally (5 ml/kg). Blood samples were taken every morning at 07.30 a.m. from tail veins for measurement of blood glucose and plasma insulin. The last blood samples of this part of the program were taken at 07.30 a.m. on the 15th day to measure blood glucose and plasma insulin. The oral drug therapy was continued for one week. Recording the day-night profile under the above therapy blood glucose (Δt ≡ 3 h) and plasma insulin (Δt = 3-6 h) wore monitored from day 16 (at b5.40 p.m. beginning) to day 17 (at 02.00 p.m. end).
# (§1) Blood glucose: Glucose levels were measured using the glucose oxidase procedure (Super G Glukosemeßgerät; Dr. Müller Gerätebau, Freital, Germany).
# (§2) Plasma insulin: Insulin concentrations were assayed by the antibody RIA method (LINCO Research, Inc. St Charles, Mo., USA).
# [3] = test system: Male Zucker fa/fa rats; experiment: OGTT on day 21 of repeated dosing; type: in vivo, rat
# Description: OGTT: A final OGTT was performed on day 21 with blood sampling from the tail vein. Blood samples from the tail vein were taken at-12 h (the night before day 21), at 0 min (immediately before the beginning of OGTT), at 10, 20, 30, 40, 50, 60, 80, 100 and 120 min. Blood samples were taken in 20 µl glass capillaries for blood glucose measurements and in Eppendorf tubes (100 µl). The latter were immediately centrifuged and the plasma fractions were stored at-20°C for insulin analysis.
# as §1, §2
# [4] = target: T1, porcine DP IV (Sus scrofa, UniProt P22411); experiment: Kinetic constants of peptide degradation by DP IV, capillary zone electrophoresis (CZE); type: biochemical; conditions: 37°C, phosphate buffer pH7.4, read-out: Cleavage, porcine DP IV, Km
# T1 construct: from tissue; host or cells: porcine kidney
# Description: The DP IV used in this study was purified from porcine kidney. The specific activity measured using Gly-Pro-4-nitroanilide as a chromogenic substrate was at least 5 units/mg. […] Capillary zone electrophoresis (CZE) investigations were carried out using a system from Beckman. Peptides and enzymes were incubated in the capillary electrophoresis system at 37°C using a 20 mM phosphate buffer pH7.4. Decrease of substrate was determined by subsequent measurements of the same sample. Separation was carried out using a 0.1 M phosphate buffer pH 2.5, a 50 µm * 30 cm fused silica capillary and 16 kV constant voltage. Peptides were detected at 200 nm. Substrate concentrations were calculated from the height of the peptide peaks, For determination of kinetic constants the degradation velocity from at least 4 substrate concentrations were determined and fitted according the Michaelis-Menten equation using Graphit 4.0.
# [5] = test system: human plasma containing DP IV-activity; experiment: Proteolytic processing of peptides in human plasma with or without P32/98, MALDI-TOF; type: in vitro ADME; conditions: inhibitor 9.8 µMol/l
# Description: The instrument was equipped with a 337 nm nitrogen laser, a potential acceleration source (5 kV) and a 1.0 m flight tube. […] The spectrometer was calibrated externally.
# Peptides were detected at 200 nm.
# Chain of human plasma containing DP IV-activity (Homo sapiens, UniProt P27487) (P27487 39-766 limits assumed): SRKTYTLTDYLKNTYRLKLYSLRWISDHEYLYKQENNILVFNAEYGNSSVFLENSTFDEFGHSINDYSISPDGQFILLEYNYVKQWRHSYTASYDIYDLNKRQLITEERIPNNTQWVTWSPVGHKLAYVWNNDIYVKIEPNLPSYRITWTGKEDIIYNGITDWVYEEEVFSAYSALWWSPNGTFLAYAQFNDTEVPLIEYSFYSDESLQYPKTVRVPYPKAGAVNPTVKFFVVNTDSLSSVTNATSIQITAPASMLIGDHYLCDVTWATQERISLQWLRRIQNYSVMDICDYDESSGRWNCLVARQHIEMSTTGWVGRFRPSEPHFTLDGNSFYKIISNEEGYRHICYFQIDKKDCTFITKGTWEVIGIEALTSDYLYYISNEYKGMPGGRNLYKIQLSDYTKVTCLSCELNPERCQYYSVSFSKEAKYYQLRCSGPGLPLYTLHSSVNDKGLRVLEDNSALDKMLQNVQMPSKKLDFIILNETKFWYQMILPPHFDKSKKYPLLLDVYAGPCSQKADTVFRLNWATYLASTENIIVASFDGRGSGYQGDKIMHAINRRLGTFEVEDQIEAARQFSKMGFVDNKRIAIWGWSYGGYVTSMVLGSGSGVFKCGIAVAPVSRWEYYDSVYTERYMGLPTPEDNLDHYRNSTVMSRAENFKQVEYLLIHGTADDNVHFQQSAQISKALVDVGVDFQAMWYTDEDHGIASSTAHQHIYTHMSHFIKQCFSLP
# T1 sequence (P22411 whole entry): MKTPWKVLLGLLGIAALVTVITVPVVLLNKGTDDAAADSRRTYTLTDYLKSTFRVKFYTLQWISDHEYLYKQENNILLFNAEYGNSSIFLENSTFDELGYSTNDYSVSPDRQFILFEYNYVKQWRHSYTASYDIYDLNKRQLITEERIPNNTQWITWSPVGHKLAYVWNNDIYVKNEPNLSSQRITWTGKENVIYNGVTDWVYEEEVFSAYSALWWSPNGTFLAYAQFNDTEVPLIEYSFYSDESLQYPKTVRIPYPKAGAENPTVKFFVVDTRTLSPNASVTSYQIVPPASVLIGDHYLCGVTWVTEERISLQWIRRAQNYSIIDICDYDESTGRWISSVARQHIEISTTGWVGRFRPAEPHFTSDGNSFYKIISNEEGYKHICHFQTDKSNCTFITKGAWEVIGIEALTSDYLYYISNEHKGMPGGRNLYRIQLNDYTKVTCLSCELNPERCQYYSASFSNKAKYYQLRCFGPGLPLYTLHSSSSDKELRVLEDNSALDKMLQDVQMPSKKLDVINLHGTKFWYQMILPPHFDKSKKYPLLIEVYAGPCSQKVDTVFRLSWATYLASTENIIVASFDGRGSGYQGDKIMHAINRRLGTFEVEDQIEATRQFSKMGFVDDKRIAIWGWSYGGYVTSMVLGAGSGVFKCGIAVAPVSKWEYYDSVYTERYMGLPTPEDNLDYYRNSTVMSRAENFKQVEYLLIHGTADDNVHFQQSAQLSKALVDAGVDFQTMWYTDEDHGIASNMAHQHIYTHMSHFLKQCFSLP
compound,measurement,setting,value
Pituitary adenylate cyclase activating polypeptide 27,"Cleavage, human plasma +P32/98",[1],ø
COc1ccc(Cl)cc1C(=O)NCCc1ccc(S(=O)(=O)NC(=O)NC2CCCCC2)cc1 [glibenclamide],Day-night profile: mean blood glucose,"[2]; Zucker rats, 02.00 p.m. next day",7.34 ± 0.77 mmol/L
same,Day-night profile: plasma insulin,"[2]; Zucker rats, 02.00 p.m. the next day",58.3 ± 7.3 ng/mL
same,Day-night profile: plasma insulin,"[2]; Zucker rats, day 16, 05.00 p.m.",50.0 ± 8.2 ng/mL
same,Day-night profile: mean blood glucose,"[2]; Zucker rats, day 16, 05.00 p.m., RP 1 mg/kg or TP 21.61 mg/kg orally once daily",7.96 ± 1.13 mmol/L
same,Day-night profile: plasma insulin,"[2]; Zucker rats, day 16, 08.00 p.m.",57.3 ± 8.2 ng/mL
same,Day-night profile: mean blood glucose,"[2]; Zucker rats, day 16, 11.00 p.m.",14.80 ± 1.46 mmol/L
same,Day-night profile: plasma insulin,"[2]; Zucker rats, day 17, 05.00 a.m.",76.3 ± 8.6 ng/mL
same,Day-night profile: mean blood glucose,"[2]; Zucker rats, day 17, 11.00 a.m.",7.66 ± 1.22 mmol/L
same,Increase of morning blood glucose,"[2]; Zucker rats, within two days of therapy",about 1.5 mmol/l
same,Increase of insulin output,"[2]; obese Zucker rat, subchronic treatment, total daily insulin secretion",27%
same,Glycemia at last drug application before overnight fasting,"[3]; 05.00 p.m., night before day 21",8.81 ± 1.21 mmol/L
same,Blood glucose increase after the glucose load,[3]; OGTT day 21,about 11 mmol/l
same,glucose area under the curve (G-AUC0-120 min),[3]; OGTT day 21,1096 ± 76 mmol·min/L
same,"Glycemia after overnight fasting (basal, before OGTT)","[3]; day 21, 07.30 a.m.",4.91 ± 0.37 mmol/L
same,OGTT blood glucose,"[3]; day 21, 50 min",16.33 ± 0.98 mmol/L
same,OGTT blood glucose,"[3]; day 21, 80 min",16.24 ± 1.09 mmol/L
same,OGTT blood glucose,"[3]; day 21, 100 min",15.13 ± 0.76 mmol/L
same,OGTT blood glucose,"[3]; day 21, 120 min",14.81 ± 0.66 mmol/L
same,Fasting plasma insulin at the beginning of the OGTT,"[3]; day 21, overnight fasting, listed as RP",11.8±1.5 ng/ml and ~ 12.5 ng/ml
Somatostatin 28,Km,[4],6 µM
"Gastrin releasing peptide (VPLPAGGGTVLTKMYPRGNHWAVGHLM; ends and bridges not checked; UniProt P07492 24-50, looked up) [Gastrin releasing peptide (GRP)]","Cleavage, human plasma +P32/98",[1],ø
Somatostatin 14,Km,[4],42 µM
Peptide histidin methionine [Peptide histidin methionine (PHM)],Km,[4],35 µM
same,"Cleavage, human plasma +P32/98",[1],ø
Cholecystokinin [Cholecystokinin (CCK21)],"Cleavage, human plasma +P32/98",[1],slow unspecific degradation by aminopeptidases and ø
"Di-[2S,3S]-2-Amino-3-methyl-pentanoic-1,3-thiazolidine fumarate [P32/98]",Hydrolysis of gastrointestinal peptides in human plasma,[5],blocked
Secretin,"Cleavage, human plasma +P32/98",[1],ø
